Experimental data as given in PMC4805082, “Seizure control by decanoic acid through direct AMPA receptor inhibition” (Brain, 2015).
Like-named read-outs stand apart in the source and are kept apart here.

Key:
[1] = tested on: GABAA receptor mediated IPSCs in hippocampal CA1 pyramidal neurons; test: Whole-cell patch clamp, evoked GABAA receptor mediated IPSCs in CA1 pyramidal cells; format: cell-based, rat; settings: 300 µM
Method: Male Sprague-Dawley rats (postnatal Days 19–30) were sacrificed using an overdose of isoflurane or pentobarbitone (500 mg/kg). After decapitation the brain was rapidly removed, the hippocampus or entorhinal cortex-hippocampus slices was dissected from the brain and […] thick transverse slices were prepared on a VT1200S vibratome (Leica) or Vibratome (Vibratome® 1500 sectioning system, Intracell). The slicing was performed in ice-cold sucrose-based solution containing (in mM): 75 sucrose, 87 NaCl, 22 glucose, 2.5 KCl, 7 MgCl2, 1.25 NaH2PO4, 0.5 CaCl2 and 25 NaHCO3, pH 7.4, 315–330 mOsm equilibrated with 95% O2 plus 5% CO2. […]
For electrophysiological recording, the slices were placed in a recording chamber constantly perfused with 32–34°C oxygenated artificial CSF solution using a gravity-driven perfusion system. […] Series resistance was monitored throughout experiments using a −5 mV step command and cells showing a >20% change in series resistance, a series of resistance of >20 MΩ or an unstable holding current were rejected. […] Inhibitory postsynaptic current (IPSCs) were recorded in the presence of DL-APV (100 µM), NBQX (10 µM) and CGP55845 (5 µM) to block NMDA-, AMPA- and GABAB-receptors, respectively. […]

AMPA receptor GluA2/3 = target: T1, AMPA receptor GluA2/3 (Homo sapiens, UniProt P42262+P42263); test: Two-electrode voltage clamp, AMPA receptor GluA2/3 expressed in Xenopus oocytes; format: cell-based
T1 construct: expressed in transfected cells; host or cells: Xenopus laevis oocytes injected with cRNA (1:1 mix)
Method: The AMPA receptor (flip isoform) cDNAs inserted in a SP6 polymerase expression vector (pSP6T) were a generous gift from Prof. Ralf Schoepfer (NPP, UCL). […] AMPA receptor cRNAs were mixed in a nominal 1:1 ratio and ∼5 ng was injected per oocyte.
Xenopus laevis oocytes were purchased from the European Xenopus Resource Centre, University of Portsmouth. Stage V to VI oocytes were mechanically dissected and then subjected to gentle shaking for ∼30–50 min at room temperature with modified Barth’s solution (in mM): 88 NaCl, 1 KCl, 2.4 NaHCO3, 0.82 MgCl2, 0.77 CaCl2, 15 Tris-Cl, adjusted to pH 7.4 with NaOH (Sigma-Aldrich), supplemented with 50 IU/ml penicillin and 50 µg/ml streptomycin (Invitrogen) and 50 µg/ml tetracycline (Sigma-Aldrich) and 1% collagenase (type 1A). Healthy oocytes were manually defolliculated and the injections of cRNA for homomeric subunits alone (GluA1), or heteromeric mixtures of two subunits together (GluA1/GluA2 or GluA2/GluA3) were made using an automated Drummond Nanoinject II injector. The oocytes were then incubated at 17°C in modified Barth’s solution for at least 48 h before use in electrophysiological recordings.
Experiments were performed at room temperature (∼21–23°C). […] Current and voltage electrodes were filled with 300 mM KCl and made from thin-walled borosilicate glass (GC150TF-7.5, Harvard Apparatus) using a PC-10 electrode puller (Narashige Instruments) and had resistances of 0.5–2 MΩ. […] Compounds were dissolved in distilled water or DMSO and dissolved in bathing solution to achieve their final concentrations during experiments, and were applied under gravity flow during the experiment by using a multi-valve perfusion system (VC3-8C, ALA Scientific Instruments). The bath solutions were perfused at a rate of 10 ml/min. […] Data acquisition was performed using the Windows PC-based program, WinEDR v3.0.6 (John Dempster, University of Strathclyde, UK).
Statistical analysis was performed using ANOVA with Tukey post hoc test, paired t-test or unpaired t-test.

T1 sequence (P42262 22-883 isoform P42262-2 limits assumed): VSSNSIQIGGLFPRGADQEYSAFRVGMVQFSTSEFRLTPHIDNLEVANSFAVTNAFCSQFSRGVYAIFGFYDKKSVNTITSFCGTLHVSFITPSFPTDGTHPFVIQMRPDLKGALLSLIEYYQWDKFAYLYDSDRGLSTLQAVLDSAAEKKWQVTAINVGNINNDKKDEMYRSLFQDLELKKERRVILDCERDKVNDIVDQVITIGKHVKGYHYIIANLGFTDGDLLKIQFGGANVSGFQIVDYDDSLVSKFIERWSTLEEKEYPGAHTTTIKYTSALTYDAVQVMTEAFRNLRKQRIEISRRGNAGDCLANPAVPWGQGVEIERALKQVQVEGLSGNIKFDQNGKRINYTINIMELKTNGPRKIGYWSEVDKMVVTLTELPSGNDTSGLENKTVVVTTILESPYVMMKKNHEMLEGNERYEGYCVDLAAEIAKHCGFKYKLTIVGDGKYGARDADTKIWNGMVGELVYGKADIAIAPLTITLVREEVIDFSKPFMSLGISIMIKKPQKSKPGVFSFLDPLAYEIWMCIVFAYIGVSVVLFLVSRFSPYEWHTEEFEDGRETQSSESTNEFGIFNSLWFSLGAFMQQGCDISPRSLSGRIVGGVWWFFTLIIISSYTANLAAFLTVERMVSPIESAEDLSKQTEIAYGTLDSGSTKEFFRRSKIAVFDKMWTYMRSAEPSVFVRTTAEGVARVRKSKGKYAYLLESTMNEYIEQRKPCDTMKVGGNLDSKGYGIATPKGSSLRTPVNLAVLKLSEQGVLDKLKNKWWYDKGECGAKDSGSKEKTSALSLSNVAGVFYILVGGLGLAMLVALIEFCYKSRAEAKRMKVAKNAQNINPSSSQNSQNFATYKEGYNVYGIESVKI
T1 sequence (P42263 29-894 isoform P42263-2 limits assumed): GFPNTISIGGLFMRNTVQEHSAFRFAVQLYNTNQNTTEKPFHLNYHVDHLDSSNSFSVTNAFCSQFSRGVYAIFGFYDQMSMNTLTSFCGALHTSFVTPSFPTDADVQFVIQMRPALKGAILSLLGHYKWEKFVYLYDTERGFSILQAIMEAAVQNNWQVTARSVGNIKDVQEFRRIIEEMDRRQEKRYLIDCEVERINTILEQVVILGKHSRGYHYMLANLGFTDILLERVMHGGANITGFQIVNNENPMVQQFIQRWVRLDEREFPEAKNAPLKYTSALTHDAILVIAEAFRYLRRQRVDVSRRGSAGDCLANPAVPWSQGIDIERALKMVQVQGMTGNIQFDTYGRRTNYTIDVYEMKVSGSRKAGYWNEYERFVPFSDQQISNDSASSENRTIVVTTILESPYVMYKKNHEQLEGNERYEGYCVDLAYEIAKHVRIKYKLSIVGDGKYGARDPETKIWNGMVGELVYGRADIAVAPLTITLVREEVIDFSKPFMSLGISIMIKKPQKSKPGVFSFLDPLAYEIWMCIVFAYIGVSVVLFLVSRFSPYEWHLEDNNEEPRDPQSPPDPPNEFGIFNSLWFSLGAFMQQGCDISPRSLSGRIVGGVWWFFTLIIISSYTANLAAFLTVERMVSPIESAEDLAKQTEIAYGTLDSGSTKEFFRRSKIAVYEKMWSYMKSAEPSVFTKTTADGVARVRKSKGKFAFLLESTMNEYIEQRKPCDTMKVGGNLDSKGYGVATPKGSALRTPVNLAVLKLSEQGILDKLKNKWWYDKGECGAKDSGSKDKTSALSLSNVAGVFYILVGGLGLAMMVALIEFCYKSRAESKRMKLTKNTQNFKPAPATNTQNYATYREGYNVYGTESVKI

CCCCCCCCCC(=O)O [decanoic acid]
effect on evoked IPSCs [1]: no significant effect | effect on 1/CV^2 for IPSCs ([1]; versus baseline, n = 6): no effect | inhibition at 100 µM (AMPA receptor GluA2/3; 100 µM, read-out: inhibition of AMPA-mediated currents): ~20% | decrease in AMPA receptor responses (AMPA receptor GluA2/3; 1 mM): 60–70% | AMPA receptor current following activation with AMPA (AMPA receptor GluA2/3; agonist AMPA 30 µM, n = 8): 16.7 ± 2.7 % of AMPA alone | AMPA receptor currents (AMPA receptor GluA2/3; compound 1 mM, currents elicited by 100 µM L-glutamate, −50 mV): 32.4 ± 2.0 % of control | IC50 (AMPA receptor GluA2/3; glutamate 100 µM, membrane potential −40 mV, n = 6, read-out: IC50): 430 ± 90 µM | IC50 (AMPA receptor GluA2/3; glutamate 100 µM, membrane potential −80 mV, n = 6, read-out: IC50): 1110 ± 50 µM | IC50 (AMPA receptor GluA2/3; glutamate 100 µM, read-out: IC50, inhibition of glutamate-induced AMPA receptor current): 520 ± 20 µM | IC50 (AMPA receptor GluA2/3; glutamate 1 mM, n = 10, read-out: IC50, inhibition of glutamate-induced AMPA receptor current): 540 ± 30 µM
